Laboratory results from US20240182481A1 (Tango Therapeutics, Inc., priority 2021, published 2024).

Tests used:
monoubiquitinated PCNA = assay: AlphaLISA assay measuring monoubiquitinated PCNA in MDA-MB-436; format: cell-based; conditions: Homo sapiens, read-out: Alpha LISA IC50
Source text: Table 1 also indicates IC50 values for exemplary compounds in an AlphaLISA assay measuring monoubiquitinated PCNA in a BRCA1 mutant cell line (MDA-MB-436; column 7).

[1] = test system: HCC1954 (BRCA1 WT) cell line; assay: Viability assay in BRCA1 WT cell line HCC1954; format: cell-based; conditions: Homo sapiens, read-out: HCC 1954 IC50 rel IC50
Source text: (§1) Table 1 also indicates IC50 values in a viability assay for a non-isogenic pair of BRCA1 mutant (column 5—MDA-MB-436) and BRCA1 WT (column 6—HCC1954) cell lines. These values indicate the effect of treatment with compound on cell survival.

[2] = test system: MDA-MB-436 (BRCA1 mutant) cell line; assay: Viability assay in BRCA1 mutant cell line MDA-MB-436; format: cell-based; conditions: Homo sapiens, MDA-MB-436, viability, BRCA1 mutant MDA-MB-436; read-out: MDA-MB-436 rel IC50
Source text: as §1

USP1-UAF1 = USP1-UAF1 (Homo sapiens, UniProt O94782); assay: Ubiquitin Rhodamine assay for USP1-UAF1 activity; format: biochemical
Protocol: Certain compounds of the disclosure were assessed for USP1-UAF1 activity in a Ubiquitin Rhodamine assay as described in Example 135.

Chain of USP1-UAF1 (O94782 whole entry): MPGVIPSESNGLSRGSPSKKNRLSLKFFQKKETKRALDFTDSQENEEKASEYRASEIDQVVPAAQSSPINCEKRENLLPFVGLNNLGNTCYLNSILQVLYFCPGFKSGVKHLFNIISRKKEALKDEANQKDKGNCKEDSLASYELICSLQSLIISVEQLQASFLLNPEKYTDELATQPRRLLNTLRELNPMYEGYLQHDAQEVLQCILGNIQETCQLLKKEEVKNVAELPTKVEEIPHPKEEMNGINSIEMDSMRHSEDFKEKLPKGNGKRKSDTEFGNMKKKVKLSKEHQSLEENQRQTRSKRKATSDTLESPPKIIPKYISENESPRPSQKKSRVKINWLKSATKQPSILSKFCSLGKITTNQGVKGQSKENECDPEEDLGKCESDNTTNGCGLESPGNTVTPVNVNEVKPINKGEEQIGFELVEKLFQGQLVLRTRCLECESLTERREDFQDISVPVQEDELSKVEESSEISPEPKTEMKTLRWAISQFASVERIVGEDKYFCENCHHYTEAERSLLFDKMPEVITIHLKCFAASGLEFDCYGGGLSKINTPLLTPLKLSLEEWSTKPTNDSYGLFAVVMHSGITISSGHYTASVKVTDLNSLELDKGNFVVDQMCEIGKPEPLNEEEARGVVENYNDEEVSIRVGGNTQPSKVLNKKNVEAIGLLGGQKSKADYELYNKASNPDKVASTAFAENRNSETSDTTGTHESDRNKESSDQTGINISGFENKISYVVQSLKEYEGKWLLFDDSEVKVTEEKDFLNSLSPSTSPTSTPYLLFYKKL
Chain of USP1-UAF1 (Q8TAF3 whole entry partner): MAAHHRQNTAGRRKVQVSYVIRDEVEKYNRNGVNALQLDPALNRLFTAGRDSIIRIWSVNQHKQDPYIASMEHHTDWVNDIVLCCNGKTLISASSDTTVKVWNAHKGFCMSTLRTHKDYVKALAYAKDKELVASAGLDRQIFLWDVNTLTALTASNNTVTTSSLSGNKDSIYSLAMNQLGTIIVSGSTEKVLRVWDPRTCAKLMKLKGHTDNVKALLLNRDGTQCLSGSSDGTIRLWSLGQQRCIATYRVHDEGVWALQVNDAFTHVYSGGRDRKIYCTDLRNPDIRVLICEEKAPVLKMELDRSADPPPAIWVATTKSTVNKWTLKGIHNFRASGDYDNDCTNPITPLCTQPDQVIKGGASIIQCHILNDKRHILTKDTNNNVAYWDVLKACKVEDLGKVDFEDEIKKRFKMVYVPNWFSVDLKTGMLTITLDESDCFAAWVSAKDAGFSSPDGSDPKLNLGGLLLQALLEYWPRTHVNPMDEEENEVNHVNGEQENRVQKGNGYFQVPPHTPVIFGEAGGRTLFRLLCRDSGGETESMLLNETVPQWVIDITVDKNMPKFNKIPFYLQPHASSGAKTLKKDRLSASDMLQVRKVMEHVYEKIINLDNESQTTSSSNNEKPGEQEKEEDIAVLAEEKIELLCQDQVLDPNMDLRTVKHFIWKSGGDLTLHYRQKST

Compound: COc1cccc(OC)c1-c1ncc2[nH]cc(Cc3ccc(-c4nc(C(F)(F)F)cn4C)cc3)c2n1 [Compound 194]
- IC50 (monoubiquitinated PCNA): 250 to 10000 nM
- IC50 [1]: ≥ 10000 nM
- IC50 [2]: 100 to 250 nM
- IC50 (USP1-UAF1): 30 to 100 nM

Compound: COCCc1[nH]c2cnc(-c3c(OC)ncnc3C3CC3)nc2c1Cc1ccc(-c2nc(C(F)(F)F)cn2C)cc1 [Compound 195, 2-(4-cyclopropyl-6-methoxy-pyrimidin-5-yl)-6-(2-methoxyethyl)-7-[[4-[-methyl-4-(trifluoromethyl)imidazol-2-yl]phenyl]methyl]-5H-pyrrolo[3,2-d]pyrimidine]
- IC50 (monoubiquitinated PCNA): < 100 nM
- IC50 [1]: ≥ 10000 nM
- IC50 [2]: < 100 nM
- IC50 (USP1-UAF1): < 30 nM

Compound: COc1ncnc(C2CC2)c1-c1ncc2[nH]nc(Cc3ccc(-c4nc(C(F)(F)F)cn4C)cc3C)c2n1 [Compound 196]
- IC50 (monoubiquitinated PCNA): < 100 nM
- IC50 [1]: ≥ 10000 nM
- IC50 [2]: < 100 nM
- IC50 (USP1-UAF1): < 30 nM

Compound: COc1ncnc(C2CC2)c1-c1ncc2[nH]cc(C(O)(c3ccc(-c4nc(C(F)(F)F)cn4C)cc3)C(C)C)c2n1 (centres unmarked) [Compound 199]
- IC50 (monoubiquitinated PCNA): 100 to 250 nM
- IC50 [1]: 250 to 10000 nM
- IC50 [2]: 100 to 250 nM
- IC50 (USP1-UAF1): 100 to 10000 nM

Compound: COCCn1cc(Cc2ccc(-c3nc(C(F)(F)F)cn3C)cc2)c2nc(-c3c(OC)ncnc3C3CC3)ncc21 [Compound 200, 2-(4-cyclopropyl-6-methoxy-pyrimidin-5-yl)-5-(2-methoxyethyl)-7-[[4-[1-methyl-4-(trifluoromethyl)imidazol-2-yl]phenyl]methyl]pyrrolo[3,2-d]pyrimidine]
- IC50 (monoubiquitinated PCNA): < 100 nM
- IC50 [1]: ≥ 10000 nM
- IC50 [2]: < 100 nM
- IC50 (USP1-UAF1): 30 to 100 nM

Compound: COc1ncnc(C2(F)CC2)c1-c1ncc2[nH]nc(Cc3ccc(-c4nc(C(F)(F)F)cn4C)cc3)c2n1 [Compound 202, 5-[4-(1-fluorocyclopropyl)-6-methoxy-pyrimidin-5-yl]-3-[[4-[1-methyl-4-(trifluoromethyl)imidazol-2-yl]phenyl]methyl]-1H-pyrazolo[4,3-d]pyrimidine]
- IC50 (monoubiquitinated PCNA): < 100 nM
- IC50 [1]: ≥ 10000 nM
- IC50 [2]: < 100 nM
- IC50 (USP1-UAF1): < 30 nM

Compound: COc1ncnc(C2CC2)c1-c1ncc2[nH]cc(Cc3ccc(-c4nc(C(F)(F)F)cn4C)cc3C)c2n1 [Compound 203, 2-(4-cyclopropyl-6-methoxy-pyrimidin-5-yl)-7-[[2-methyl-4-[1-methyl-4-(trifluoromethyl)imidazol-2-yl]phenyl]methyl]-5H-pyrrolo[3,2-d]pyrimidine]
- IC50 (monoubiquitinated PCNA): < 100 nM
- IC50 [1]: ≥ 10000 nM
- IC50 [2]: < 100 nM
- IC50 (USP1-UAF1): < 30 nM

Compound: [2H]C([2H])([2H])Oc1ncnc(C2CC2)c1-c1ncc2[nH]cc(Cc3ccc(-c4nc(C(F)(F)F)cn4C)cc3)c2n1 [Compound 204, 2-[4-cyclopropyl-6-(trideuteriomethoxy)pyrimidin-5-yl]-7-[[4-[1-methyl-4-(trifluoromethyl)imidazol-2-yl]phenyl]methyl]-5H-pyrrolo[3,2-d]pyrimidine]
- IC50 (monoubiquitinated PCNA): < 100 nM
- IC50 [1]: ≥ 10000 nM
- IC50 [2]: < 100 nM
- IC50 (USP1-UAF1): < 30 nM

Compound: COc1nccc(C2CC2)c1-c1ncc2[nH]nc(Cc3ccc(-c4nc(C(F)(F)F)cn4C)cc3)c2n1 [Compound 205, 5-(4-cyclopropyl-2-methoxy-3-pyridyl)-3-[[4-[1-methyl-4-(trifluoromethyl)imidazol-2-yl]phenyl]methyl]-1H-pyrazolo[4,3-d]pyrimidine]
- IC50 (monoubiquitinated PCNA): < 100 nM
- IC50 [1]: ≥ 10000 nM
- IC50 [2]: < 100 nM
- IC50 (USP1-UAF1): < 30 nM

Compound: COc1ncnc(C2CC2)c1-c1ncc2[nH]nc(Cc3ccc(-c4nc(C(F)(F)F)cn4C4CC4)cc3)c2n1 [Compound 206]
- IC50 (monoubiquitinated PCNA): < 100 nM
- IC50 [1]: 250 to 10000 nM
- IC50 [2]: < 100 nM
- IC50 (USP1-UAF1): < 30 nM

Compound: COc1ncnc(C2CC2)c1-c1ncc2[nH]c(C)c(C(O)c3ccc(-c4nc(C(F)(F)F)cn4C)cc3)c2n1 (centres unmarked) [Compound 207, [2-(4-cyclopropyl-6-methoxy-pyrimidin-5-yl)-6-methyl-5H-pyrrolo[3,2-d]pyrimidin-7-yl]-[4-[1-methyl-4-(trifluoromethyl)imidazol-2-yl]phenyl]methanol]
- IC50 (monoubiquitinated PCNA): 250 to 10000 nM
- IC50 [1]: ≥ 10000 nM
- IC50 [2]: 250 to 10000 nM
- IC50 (USP1-UAF1): 100 to 10000 nM
